Laboratory results: patent US11331299B2, “Medicinal use of serrulatane diterpenes” (The University of Sydney, priority 2016, dated 2022)
Like-named read-outs stand apart in the source and are kept apart here.

Tested on: 280 human cancer cell lines
Assay: OncoPanel cell proliferation assay (10-day)
Type: cell-based
Settings: for EC50: read-out: Cell Count EC50; for IC50: read-out: Cell Count IC50
[1] = Homo sapiens, 22Rv1, 22Rv1, Prostate
[2] = Homo sapiens, 786-0, 786-O, Kidney
[3] = Homo sapiens, A7, Skin (Melanoma)
[4] = Homo sapiens, A 172, A172, CNS - Glioma
[5] = Homo sapiens, A253, A-253, Head and Neck
[6] = Homo sapiens, A388, Head and Neck
[7] = Homo sapiens, A498, A498, Kidney
[8] = Homo sapiens, A549, A549, Lung - NSCLC
[9] = Homo sapiens, A673, A-673, Soft Tissue - Sarcoma
[10] = Homo sapiens, A704, A-704, Kidney
[11] = Homo sapiens, A-375, A375, Skin (Melanoma)
[12] = Homo sapiens, A-427, A427, Lung - NSCLC
[13] = Homo sapiens, A-431, A431, Head and Neck
[14] = Homo sapiens, AN3-CA, AN3 CA, Female GU - Uterus
[15] = Homo sapiens, ARH-77, ARH-77, Myeloma
[16] = Homo sapiens, ASPC1, AsPC-1, Pancreas
[17] = Homo sapiens, AU565, AU565, Breast
[18] = Homo sapiens, BCP-1, BCP-1, Lymphoma
[19] = Homo sapiens, BE(2)-C, BE(2)C, CNS - Neuroblastoma
[20] = Homo sapiens, BFTC-905, BFTC-905, Bladder
[21] = Homo sapiens, BHT-101, BHT-101, Endocrine - Thyroid
[22] = Homo sapiens, BM-1604, BM-1604, Prostate
[23] = Homo sapiens, BPH-1, BPH1, Prostate
[24] = Homo sapiens, BT-20, BT20, Breast

CC(C)=CCC[C@H](CO)[C@@H]1CC[C@@H](C)c2c1cc(C)c(O)c2O [Compound 1, 7,8,18-trihydroxyserrulat-14-ene]
Number of cell types, GI Activity Potent (GI50 range 0.03-0.099 μM, of 280 cell types): 0
Number of cell types, GI Activity moderately potent (GI50 range 0.1-0.99 μM, of 280 cell types): 23
Number of cell types, GI Activity Strong (GI50 range 1-2.99 μM, of 280 cell types): 149
Number of cell types, GI Activity moderately strong (GI50 range 3-9.99 μM, of 280 cell types): 99
Number of cell types, GI Activity weak (GI50 range 10-30.00 μM, of 280 cell types): 6
Number of cell types, GI Activity very weak (GI50 range >30 μM, of 280 cell types): 1
EC50 [1]: 4080 nM
GI50 (Homo sapiens, 22Rv1, 22Rv1, Prostate, read-out: Cell Count GI50): 4060 nM
IC50 [1]: 4080 nM
GI50 (Homo sapiens, 149 cell lines with strong activity, read-out: GI50): 1000 to 2980 nM
GI50 (Homo sapiens, 174 cell lines with very potent to strong activity, read-out: GI50): 6 to 2980 nM
EC50 (Homo sapiens, 647-V, Bladder): 3120 nM
GI50 (Homo sapiens, 647-V, Bladder, read-out: Cell Count GI50): 3110 nM
IC50 (Homo sapiens, 647-V, Bladder): 3120 nM
EC50 (Homo sapiens, 769-P, Kidney): 850 nM
GI50 (Homo sapiens, 769-P, Kidney, read-out: Cell Count GI50): 850 nM
IC50 (Homo sapiens, 769-P, Kidney): 850 nM
EC50 [2]: 2050 nM
GI50 (Homo sapiens, 786-0, 786-O, Kidney, read-out: Cell Count GI50): 2050 nM
IC50 [2]: 2050 nM
EC50 (Homo sapiens, 5637, Bladder): 3380 nM
GI50 (Homo sapiens, 5637, Bladder, read-out: Cell Count GI50): 3320 nM
IC50 (Homo sapiens, 5637, Bladder): 3380 nM
EC50 [3]: 940 nM
GI50 (Homo sapiens, A7, Skin (Melanoma), read-out: Cell Count GI50): 940 nM
IC50 [3]: 940 nM
EC50 (Homo sapiens, A101D): 8420 nM
GI50 (Homo sapiens, A101D, read-out: Cell Count GI50): 8250 nM
IC50 (Homo sapiens, A101D): 8420 nM
EC50 [4]: 1120 nM
GI50 (Homo sapiens, A 172, A172, CNS - Glioma, read-out: Cell Count GI50): 1140 nM
IC50 [4]: 1150 nM
EC50 [5]: 4130 nM
GI50 (Homo sapiens, A253, A-253, Head and Neck, read-out: Cell Count GI50): 4130 nM
IC50 [5]: 4140 nM
EC50 [6]: 1660 nM
GI50 (Homo sapiens, A388, Head and Neck, read-out: Cell Count GI50): 1660 nM
IC50 [6]: 1670 nM
EC50 [7]: 1290 nM
GI50 (Homo sapiens, A498, A498, Kidney, read-out: Cell Count GI50): 1290 nM
IC50 [7]: 1290 nM
EC50 [8]: 1660 nM
GI50 (Homo sapiens, A549, A549, Lung - NSCLC, read-out: Cell Count GI50): 1660 nM
IC50 [8]: 1670 nM
EC50 [9]: 1540 nM
GI50 (Homo sapiens, A673, A-673, Soft Tissue - Sarcoma, read-out: Cell Count GI50): 1540 nM
IC50 [9]: 1550 nM
EC50 [10]: 1570 nM
GI50 (Homo sapiens, A704, A-704, Kidney, read-out: Cell Count GI50): 1540 nM
IC50 [10]: 1600 nM
EC50 [11]: 1050 nM
GI50 (Homo sapiens, A-375, A375, Skin (Melanoma), read-out: Cell Count GI50): 1050 nM
IC50 [11]: 1050 nM
EC50 [12]: 4520 nM
GI50 (Homo sapiens, A-427, A427, Lung - NSCLC, read-out: Cell Count GI50): 4500 nM
IC50 [12]: 4520 nM
EC50 [13]: 2800 nM
GI50 (Homo sapiens, A-431, A431, Head and Neck, read-out: Cell Count GI50): 2800 nM
IC50 [13]: 2810 nM
EC50 (Homo sapiens, ACHN, Kidney): 1740 nM
GI50 (Homo sapiens, ACHN, Kidney, read-out: Cell Count GI50): 1740 nM
IC50 (Homo sapiens, ACHN, Kidney): 1740 nM
EC50 (Homo sapiens, AGS, Stomach): 700 nM
GI50 (Homo sapiens, AGS, Stomach, read-out: Cell Count GI50): 700 nM
IC50 (Homo sapiens, AGS, Stomach): 700 nM
EC50 [14]: 1520 nM
GI50 (Homo sapiens, AN3-CA, AN3 CA, Female GU - Uterus, read-out: Cell Count GI50): 1490 nM
IC50 [14]: 1520 nM
EC50 [15]: 1950 nM
GI50 (Homo sapiens, ARH-77, ARH-77, Myeloma, read-out: Cell Count GI50): 1950 nM
IC50 [15]: 1970 nM
EC50 [16]: 2870 nM
GI50 (Homo sapiens, ASPC1, AsPC-1, Pancreas, read-out: Cell Count GI50): 2840 nM
IC50 [16]: 2870 nM
EC50 [17]: 1620 nM
GI50 (Homo sapiens, AU565, AU565, Breast, read-out: Cell Count GI50): 1610 nM
IC50 [17]: 1620 nM
EC50 (Homo sapiens, BC-1, Lymphoma): 1520 nM
GI50 (Homo sapiens, BC-1, Lymphoma, read-out: Cell Count GI50): 1510 nM
IC50 (Homo sapiens, BC-1, Lymphoma): 1520 nM
EC50 [18]: 3180 nM
GI50 (Homo sapiens, BCP-1, BCP-1, Lymphoma, read-out: Cell Count GI50): 3140 nM
IC50 [18]: 3180 nM
EC50 [19]: 4230 nM
GI50 (Homo sapiens, BE(2)-C, BE(2)C, CNS - Neuroblastoma, read-out: Cell Count GI50): 4180 nM
IC50 [19]: 4230 nM
EC50 [20]: 1790 nM
GI50 (Homo sapiens, BFTC-905, BFTC-905, Bladder, read-out: Cell Count GI50): 1780 nM
IC50 [20]: 1790 nM
EC50 [21]: 2160 nM
GI50 (Homo sapiens, BHT-101, BHT-101, Endocrine - Thyroid, read-out: Cell Count GI50): 2170 nM
IC50 [21]: 2170 nM
EC50 [22]: 2580 nM
GI50 (Homo sapiens, BM-1604, BM-1604, Prostate, read-out: Cell Count GI50): 2560 nM
IC50 [22]: 2580 nM
EC50 [23]: 5240 nM
GI50 (Homo sapiens, BPH-1, BPH1, Prostate, read-out: Cell Count GI50): 5200 nM
IC50 [23]: 5240 nM
EC50 [24]: 1590 nM
GI50 (Homo sapiens, BT-20, BT20, Breast, read-out: Cell Count GI50): 1530 nM
IC50 [24]: 1610 nM
